# System: Plasmodium falciparum
# Test: Antimalarial activity against chloroquine-sensitive Plasmodium falciparum NF54 assessed as inhibition of maturation of rings into schizonts stage
# Assay type: functional
row,SMILES,MIC
1,CCN(CC)CCCC(C)Nc1ccnc2cc(Cl)ccc12 (stereo unspecified) [CHLOROQUINE],0.04 µg/mL
2,NCCCCNc1ccnc2cc(Cl)ccc12,2 µg/mL
3,NCCCNc1ccnc2cc(Cl)ccc12,10 µg/mL
4,CC(=O)O[C@@H]1CC[C@@]2(C)[C@H](CC[C@@H]3[C@@H]2C[C@H](OC(C)=O)[C@]2(C)[C@@H]([C@H](C)CNC(C)C)CC[C@@H]32)C1,10 µg/mL
5,CC(=O)O[C@@H]1CC[C@@]2(C)[C@H](CC[C@@H]3[C@@H]2C[C@H](OC(C)=O)[C@]2(C)[C@@H]([C@H](C)CNCc4ccccc4)CC[C@@H]32)C1,2 µg/mL
6,CC(=O)O[C@@H]1CC[C@@]2(C)[C@H](CC[C@@H]3[C@@H]2C[C@H](OC(C)=O)[C@]2(C)[C@@H]([C@H](C)CNCCCCNc4ccnc5cc(Cl)ccc45)CC[C@@H]32)C1,1 µg/mL
7,CC(=O)O[C@@H]1CC[C@@]2(C)[C@H](CC[C@@H]3[C@@H]2C[C@H](OC(C)=O)[C@]2(C)[C@@H]([C@H](C)CNCCCNc4ccnc5cc(Cl)ccc45)CC[C@@H]32)C1,0.5 µg/mL
8,CCCCNC[C@@H](C)[C@H]1CC[C@H]2[C@@H]3CC[C@@H]4C[C@H](OC(C)=O)CC[C@]4(C)[C@H]3C[C@H](OC(C)=O)[C@]12C,> 10 µg/mL
9,CC(=O)O[C@@H]1CC[C@@]2(C)[C@H](CC[C@@H]3[C@@H]2C[C@H](OC(C)=O)[C@]2(C)[C@@H]([C@H](C)CCNC(C)C)CC[C@@H]32)C1,> 50 µg/mL
10,CCCCNCC[C@@H](C)[C@H]1CC[C@H]2[C@@H]3CC[C@@H]4C[C@H](OC(C)=O)CC[C@]4(C)[C@H]3C[C@H](OC(C)=O)[C@]12C,> 50 µg/mL
11,CC(=O)O[C@@H]1CC[C@@]2(C)[C@H](CC[C@@H]3[C@@H]2C[C@H](OC(C)=O)[C@]2(C)[C@@H]([C@H](C)CCNCc4ccccc4)CC[C@@H]32)C1,50 µg/mL

# Source: ChEMBL document CHEMBL3044553, “Amino steroids as antimalarial agents” (2008)
